Test results: US20250250230A1, “HETEROCYCLIC COMPOUND” (TAKEDA PHARMACEUTICAL COMPANY LIMITED, priority 2022, published 2025)

Biological target: T1, human orexin type 2 receptor (Homo sapiens, UniProt O43614)
T1 construct: expressed in transfected cells
T1 sequence (O43614 1-444): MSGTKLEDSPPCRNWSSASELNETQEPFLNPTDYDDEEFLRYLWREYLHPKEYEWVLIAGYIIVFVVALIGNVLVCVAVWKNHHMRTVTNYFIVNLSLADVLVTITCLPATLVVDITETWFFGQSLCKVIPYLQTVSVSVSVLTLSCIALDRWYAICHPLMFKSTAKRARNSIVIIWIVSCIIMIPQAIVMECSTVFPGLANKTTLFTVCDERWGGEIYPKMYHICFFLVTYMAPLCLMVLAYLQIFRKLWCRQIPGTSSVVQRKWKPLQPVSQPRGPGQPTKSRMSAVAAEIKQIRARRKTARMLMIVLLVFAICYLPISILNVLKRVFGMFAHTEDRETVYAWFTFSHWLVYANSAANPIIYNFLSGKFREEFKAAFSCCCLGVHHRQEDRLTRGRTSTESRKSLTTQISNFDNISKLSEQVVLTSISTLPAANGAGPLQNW
Assay: Measurement of orexin type 2 receptor agonist activity (calcium fluorescence, Fluo-4 AM, FDSS)
Format: cell-based
Conditions: test compound 3 μM; CHO cells expressing human OX2 receptor; DMSO = 0%, orexin A (human) = 100%
Procedure, shortened: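 Agonist response scaled between vehicle (0%) and human orexin A at 10 nM final (100%), from 2-min kinetic Fluo-4 fluorescence reads. Stable hOX2R CHO-K1 clone, dye-loaded in HBSS/20 mM HEPES/0.1% BSA with 1.25 mM probenecid before compound addition.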

Compound | OX2R agonist activity (3 μM, %) [%]
CS(=O)(=O)NC1CCCN(C(=O)C2CC2c2c(F)cccc2-c2ccccc2)CC1 (racemic) [Example 95, a mixture of rac-N-{(4R)-1-[(1R,2R)-2-(3-fluoro[1,1′-biphenyl]-2-yl)cyclopropane-1-carbonyl]azepan-4-yl}methanesulfonamide and rac-N-{(4S)-1-[(1R,2R)-2-(3-fluoro[1,1′-biphenyl]-2-yl)cyclopropane-1-carbonyl]azepan-4-yl}methanesulfonamide] | 61
CC(C)S(=O)(=O)N[C@@H](C)[C@@H]1CCN1C(=O)[C@@H]1C[C@@]1(F)c1ccccc1-c1c(F)cccc1F [Example 389, N-[(1S)-1-{(2S)-1-[(1S,2S)-2-(2′,6′-difluoro[1,1′-biphenyl]-2-yl)-2-fluorocyclopropane-1-carbonyl]azetidin-2-yl}ethyl]propane-2-sulfonamide] | 97
O=C([C@@H]1C[C@@]1(F)c1ccc(F)cc1-c1c(F)cccc1F)N1C[C@@H](F)[C@H]1CNS(=O)(=O)NC1CC1 [Example 447, N-cyclopropyl-N′-({(2R,3R)-3-fluoro-1-[(1S,2S)-2-fluoro-2-(2′,5,6′-trifluoro[1,1′-biphenyl]-2-yl)cyclopropane-1-carbonyl]azetidin-2-yl}methyl)sulfuric diamide] | 90
C[C@H]1C[C@H](NS(C)(=O)=O)CN1C(=O)C1(C)CC1c1ccccc1-c1c(F)cccc1F (stereo partly drawn) [Example 315, N-{(3S,5S)-1-[(1R,2S)-2-(2′,6′-difluoro[1,1′-biphenyl]-2-yl)-1-methylcyclopropane-1-carbonyl]-5-methylpyrrolidin-3-yl}methanesulfonamide, or N-{(3S,5S)-1-[(1S,2R)-2-(2′,6′-difluoro[1,1′-biphenyl]-2-yl)-1-methylcyclopropane-1-carbonyl]-5-methylpyrrolidin-3-yl}methanesulfonamide] | 91
CN(C)S(=O)(=O)NC[C@@H]1[C@H](F)CN1C(=O)[C@@H]1C[C@@]1(F)c1ccc(F)cc1-c1c(F)cccc1F [Example 424, N′-({(2R,3R)-3-fluoro-1-[(1S,2S)-2-fluoro-2-(2′,5,6′-trifluoro[1,1′-biphenyl]-2-yl)cyclopropane-1-carbonyl]azetidin-2-yl}methyl)-N,N-dimethylsulfuric diamide] | 98
CS(=O)(=O)NC1CCCN(C(=O)C2CC2c2ccccc2-c2ccccc2F)CC1 (racemic) [Example 59, a mixture of rac-N-{(4R)-1-[(1R,2R)-2-(2′-fluoro[1,1′-biphenyl]-2-yl)cyclopropane-1-carbonyl]azepan-4-yl}methanesulfonamide and rac-N-{(4S)-1-[(1R,2R)-2-(2′-fluoro[1,1′-biphenyl]-2-yl)cyclopropane-1-carbonyl]azepan-4-yl}methanesulfonamide] | 80
CS(=O)(=O)NC1CCCN(C(=O)C2CC2c2ccccc2-c2ccccc2Cl)C1 (racemic) [Example 74, a mixture of rac-N-{(3R)-1-[(1R,2R)-2-(2′-chloro[1,1′-biphenyl]-2-yl)cyclopropane-1-carbonyl]piperidin-3-yl}methanesulfonamide and rac-N-{(3S)-1-[(1R,2R)-2-(2′-chloro[1,1′-biphenyl]-2-yl)cyclopropane-1-carbonyl]piperidin-3-yl}methanesulfonamide] | 84
Cc1cc(-c2c(F)cccc2F)c(C2CC2C(=O)N2CCCC(NS(C)(=O)=O)C2)cn1 (racemic) [Example 267, a mixture of rac-N-[(3R)-1-{(1R,2R)-2-[4-(2,6-difluorophenyl)-6-methylpyridin-3-yl]cyclopropane-1-carbonyl}piperidin-3-yl]methanesulfonamide and rac-N-[(3S)-1-{(1R,2R)-2-[4-(2,6-difluorophenyl)-6-methylpyridin-3-yl]cyclopropane-1-carbonyl}piperidin-3-yl]methanesulfonamide] | 87
COCC1(C(=O)N2CC[C@H]2CNS(C)(=O)=O)CC1c1ccc(F)cc1-c1c(F)cccc1F (stereo partly drawn) [Example 435, N-({(2S)-1-[(1R,2S)-1-(methoxymethyl)-2-(2′,5,6′-trifluoro[1,1′-biphenyl]-2-yl)cyclopropane-1-carbonyl]azetidin-2-yl}methyl)methanesulfonamide, or N-({(2S)-1-[(1S,2R)-1-(methoxymethyl)-2-(2′,5,6′-trifluoro[1,1′-biphenyl]-2-yl)cyclopropane-1-carbonyl]azetidin-2-yl}methyl)methanesulfonamide] | 101
CC(C)NS(=O)(=O)NC[C@@H]1[C@H](F)CN1C(=O)[C@@H]1C[C@@]1(F)c1ccc(F)cc1-c1c(F)cccc1F [Example 425, N-({(2R,3R)-3-fluoro-1-[(1S,2S)-2-fluoro-2-(2′,5,6′-trifluoro[1,1′-biphenyl]-2-yl)cyclopropane-1-carbonyl]azetidin-2-yl}methyl)-N′-propan-2-ylsulfuric diamide] | 72

Next, values leading:

OX2R agonist activity (3 μM, %) [%] | Compound
87 | CS(=O)(=O)NC[C@H]1CN(C(=O)[C@@H]2C[C@H]2c2ccccc2-c2c(F)cccc2F)CCO1 [Example 282, N-({(2R)-4-[(1R,2R)-2-(2′,6′-difluoro[1,1′-biphenyl]-2-yl)cyclopropane-1-carbonyl]morpholin-2-yl}methyl)methanesulfonamide]
106 | O=C(C1CC1c1ccccc1-c1c(F)cccc1F)N1CC[C@H](NS(=O)(=O)CF)C1 (mixture of isomers) [Example 202, a mixture of rac-N-{(3S)-1-[(1R,2R)-2-(2′,6′-difluoro[1,1′-biphenyl]-2-yl)cyclopropane-1-carbonyl]pyrrolidin-3-yl}-1-fluoromethanesulfonamide and N-{(3S)-1-[(1S,2S)-2-(2′,6′-difluoro[1,1′-biphenyl]-2-yl)cyclopropane-1-carbonyl]pyrrolidin-3-yl}-1-fluoromethanesulfonamide]
85 | CC1C(C(=O)N2CCC[C@H](NS(C)(=O)=O)C2)C1c1ccccc1-c1c(F)cccc1F (mixture of isomers) [Example 305, a mixture of N-{(3S)-1-[(1R,2R,3S)-2-(2′,6′-difluoro[1,1′-biphenyl]-2-yl)-3-methylcyclopropane-1-carbonyl]piperidin-3-yl}methanesulfonamide and N-{(3S)-1-[(1S,2S,3R)-2-(2′,6′-difluoro[1,1′-biphenyl]-2-yl)-3-methylcyclopropane-1-carbonyl]piperidin-3-yl}methanesulfonamide]
78 | CS(=O)(=O)N[C@@H]1CCCCN(C(=O)C2CC2c2ccccc2-c2c(F)cccc2F)C1 (mixture of isomers) [Example 183, a mixture of N-{(3R)-1-[(1R,2R)-2-(2′,6′-difluoro[1,1′-biphenyl]-2-yl)cyclopropane-1-carbonyl]azepan-3-yl}methanesulfonamide and N-{(3R)-1-[(1S,2S)-2-(2′,6′-difluoro[1,1′-biphenyl]-2-yl)cyclopropane-1-carbonyl]azepan-3-yl}methanesulfonamide]
102 | CN(C)S(=O)(=O)NC1CCCN(C(=O)C2CC2c2ccccc2-c2c(F)cccc2F)CC1 (racemic) [Example 114, a mixture of rac-N′-{(4R)-1-[(1R,2R)-2-(2′,6′-difluoro[1,1′-biphenyl]-2-yl)cyclopropane-1-carbonyl]azepan-4-yl}-N,N-dimethylsulfuric diamide and rac-N′-{(4S)-1-[(1R,2R)-2-(2′,6′-difluoro[1,1′-biphenyl]-2-yl)cyclopropane-1-carbonyl]azepan-4-yl}-N,N-dimethylsulfuric diamide]
90 | CN(C)S(=O)(=O)NC[C@@H]1CN(C(=O)[C@@H]2C[C@H]2c2ccccc2-c2c(F)cccc2F)CCO1 [Example 299, N′-({(2S)-4-[(1R,2R)-2-(2′,6′-difluoro[1,1′-biphenyl]-2-yl)cyclopropane-1-carbonyl]morpholin-2-yl}methyl)-N,N-dimethylsulfuric diamide]
96 | CO[C@@H]1CN(C(=O)[C@@H]2C[C@H]2c2ccccc2-c2c(F)cccc2F)C[C@H]1NS(C)(=O)=O [Example 323, N-{(3R,4R)-1-[(1R,2R)-2-(2′,6′-difluoro[1,1′-biphenyl]-2-yl)cyclopropane-1-carbonyl]-4-methoxypyrrolidin-3-yl}methanesulfonamide]
97 | CN(C)S(=O)(=O)N[C@H]1CCCN(C(=O)[C@@H]2C[C@H]2c2ccccc2-c2c(F)cccc2F)C1 [Example 302, N′-{(3S)-1-[(1R,2R)-2-(2′,6′-difluoro[1,1′-biphenyl]-2-yl)cyclopropane-1-carbonyl]piperidin-3-yl}-N,N-dimethylsulfuric diamide]
97 | CS(=O)(=O)NC1CCCCN(C(=O)C2CC2c2ccccc2-c2c(F)cccc2F)C1 (racemic) [Example 41, a mixture of rac-N-{(3R)-1-[(1R,2R)-2-(2′,6′-difluoro[1,1′-biphenyl]-2-yl)cyclopropane-1-carbonyl]azepan-3-yl}methanesulfonamide and rac-N-{(3S)-1-[(1R,2R)-2-(2′,6′-difluoro[1,1′-biphenyl]-2-yl)cyclopropane-1-carbonyl]azepan-3-yl}methanesulfonamide]
